Reference: article PMC8147781, “Discovery of Pyrrolidine-2,3-diones as Novel Inhibitors of P. aeruginosa PBP3” (Antibiotics, 2021)
≈ marks a conversion by molar mass, not a printed value. Where two headings read alike, the source gives them in different places.

How the values were obtained:
S. pneumoniae = assay: MIC broth microdilution, S. pneumoniae; type: cell-based; details: Streptococcus pneumoniae, read-out: MIC (µM) S. pneumoniae
Experimental: (§1) MIC determination was performed via standard broth microdilution according to the Clinical & Laboratory Standards institute guidelines. Overnight colonies grown on BD-Columbia agar with 5% Sheep Blood (Becton Dickinson, Franklin Lakes, NJ, USA), were diluted in Mueller Hinton Broth 2 cation adjusted (MH+) medium (Thermo Fisher Scientific) to a concentration of 5 × 10^5 CFU/mL. Serial dilutions (1:2) of test compounds were incubated at 37 °C with 5 × 10^4 bacteria in a final volume of 100 μL. Sterile and growth controls in the presence of 1% DMSO and PMBN if the case, and the positive controls, aztreonam (AZT) and tigecycline (TIG) were included in the experiments (Table S4). The MICs were determined visually after 18 h at 37 °C and confirmed by the addition of 10% PrestoBlue (ThermoFisher Scientific) reagent according to the manufacture’s protocol. The fluorescence signal of PrestoBlue reagent was measured at Ex/Em: 550/595 nm after 30 min incubation at 37 °C using at a ClarioStar microplate reader (BMG Labtech). PrestoBlue reduction occurs in the presence of living cells and consequently turns red in colour and is highly fluorescent.

[1] = tested on: T-lymphoblast CCRF-CEM cell line; assay: Cytotoxicity assay (PrestoBlue), CCRF-CEM; details: for Cytotoxicity CCRF-CEM: CC50, 72 h
Experimental: (§2) We finally tested the cytotoxicity of the compounds against four eukaryotic cell lines (Table 2 and Table S5), NRK-52E, an epithelial kidney cell line of Rattus norvegicus; Hep G2, an human epithelial liver cell line; and two suspension cell lines: CCRF-CEM, a T lymphoblast; and H9, a cutaneous T lymphocyte cell line.
(§3) Cell lines stored at −120 °C were thawed to 37 °C and resuspended in 10 mL of medium pre-warmed to 37 °C. Cells were pelleted at 300× g for 10 min, and then resuspended in fresh medium, seeded in a T-75 culture flask, and placed in a CO2 incubator (37 °C with 5% CO2 tension). Once the cells reached approximately 70–80% confluency, they were then passaged regularly. The adherent cell lines NRK52E, HepG2 and Huh 7 were washed once with 10 mL DPBS and detached with Trypsin-EDTA for 5 to 7 min and resuspended in 15 mL of the appropriate medium. The suspension cell line CCRF-CEM were diluted and resuspended in fresh RPMI 1640 PAN medium. To calculate the cell density, the cell resuspensions were diluted 1:6 with DPBS. Equal volumes of cell suspension and Trypan Blue were mixed and gently loaded into a haemocytometer (INCYTO, 31056 Republic of Korea). In each experiment, cell concentrations were adjusted to reach a concentration of 2.5 × 10^3 cell/well for NRK52E, 5 × 10^3 cell/well for HepG2, 6.2 × 10^4 cell/well for CCRF-CEM and 3 × 10^3 for H9. The cells were incubated with decreasing concentration of compounds (1 µL in 96% DMSO) for 72 h at 37 °C with 5% CO2 tension. Cycloheximide, a cytotoxic compound that interferes with the translocation step in eukaryotic protein synthesis was used as a control for the experiments. The assay was carried out in flat-bottom, transparent 96-well plates. Cell viability was determined using the PrestoBlue reagent (Thermo Fisher Scientific, Waltham, MA, USA) according to the manufacture’s protocol. First, 10× PrestoBlue was added to each well to obtain a 1× solution, and incubated at 37 °C for 45 min. Then, fluorescence was measured at Ex/Em: 550/595 nm using a ClarioStar microplate reader (BMG Labtech). Cytotoxicity was determined as the percentage of the difference in absorbance of the untreated sample to the treated sample. CC50 was calculated using the values obtained in each concentration using the sigmoidal dose-response by Prism v.8. The media used in each cell line is detailed in Table S6.

[2] = tested on: Hep G2, epithelial liver cell line; assay: Cytotoxicity assay (PrestoBlue), HepG2; details: CC50, 72 h
Experimental: as §2, §3

B. subtilis 168 = assay: MIC broth microdilution, B. subtilis; type: cell-based; details: Bacillus subtilis, 168; Table S3
Experimental: as §1

[3] = tested on: K. pneumoniae clinical isolate; assay: MIC broth microdilution, K. pneumoniae; type: cell-based; details: Klebsiella pneumoniae; Table S3
Experimental: as §1

S. aureus 133 = assay: MIC broth microdilution, S. aureus; type: cell-based; details: Staphylococcus aureus, 133; Table S3
Experimental: as §1

A. baumannii ATCC15308 = assay: MIC broth microdilution, A. baumannii; type: cell-based; details: 10 µg/mL PMBN
Experimental: as §1

[4] = target: T1, PBP3 of P. aeruginosa (PaPBP3) (Pseudomonas aeruginosa, UniProt G3XD46); assay: S2dfluo fluorescence transpeptidase assay; type: biochemical; details: 300 nM PaPBP3, 30 min preincubation, 37 °C; for IC50: read-out: IC50 Determination with PaPBP3, S2dfluo Assay
T1 construct: P. aeruginosa PBP3 (amino acids 40 to 563); His-tag; made in house; host or cells: E. coli BL21 (DE3) Rosetta, plasmid pET41_PBP-3
T1 sequence (G3XD46 40-563): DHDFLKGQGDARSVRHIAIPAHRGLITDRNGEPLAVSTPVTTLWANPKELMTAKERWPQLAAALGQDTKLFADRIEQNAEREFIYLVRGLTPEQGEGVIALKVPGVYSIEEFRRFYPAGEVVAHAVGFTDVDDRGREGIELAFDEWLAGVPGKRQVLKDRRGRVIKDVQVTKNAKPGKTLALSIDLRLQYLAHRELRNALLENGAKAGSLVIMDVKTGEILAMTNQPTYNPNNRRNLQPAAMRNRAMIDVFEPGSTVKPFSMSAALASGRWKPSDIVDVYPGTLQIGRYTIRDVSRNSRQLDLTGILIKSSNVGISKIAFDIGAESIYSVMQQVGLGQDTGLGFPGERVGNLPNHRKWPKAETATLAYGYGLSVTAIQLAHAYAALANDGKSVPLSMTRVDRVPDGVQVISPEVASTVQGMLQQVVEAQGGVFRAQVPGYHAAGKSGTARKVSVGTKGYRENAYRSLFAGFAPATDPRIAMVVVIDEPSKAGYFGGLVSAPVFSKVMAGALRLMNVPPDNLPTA
Experimental: The assays were carried out in the presence of 5% DMSO and 0.01% Triton X100 to avoid the formation of colloidal structures and adsorption of protein and/or compounds to surfaces. The Z’-factor determined for the assay was 0.73 ± 0.28, indicating the suitability and robustness of the assay for high throughput screening (HTS) (Figure 1B,C).
The activity of soluble ^PaPBP3 (300 nM) was measured in the presence of 0.8 mM S2d, 1 mM D-alanine and 0.5 mM mBBr for 25 min by monitoring the increase in the fluorescence intensity of mBBr at Ex/Em: 394/490 nm using an Infinite M1000 microplate reader (Tecan, Männedorf, Switzerland). To test the effect of inhibitors, 100 µM or 0.8 to 100 µM of compounds diluted in 96% DMSO were incubated for 30 min and 450 rpm with 300 nM soluble PBP3. The incubation period was set to improve the binding of non-covalent inhibitors and 0.01% Triton X100 (Sigma-Aldrich, Taufkirchen, Germany) was added to prevent aggregation of compounds. The enzyme reaction was started by adding a substrate mix of 0.8 mM S2d and […]. The enzyme, compound and substrate mix were mixed 1:1, pipetted with a Liquidator 96 (Melter Toledo, Gießen, Germany) and the fluorescence intensity was directly monitored with an Infinite M1000 microplate reader (Tecan) at Ex/Em: 394/490 nm. The assay was performed in black, flat-bottom 96-well microplates (Greiner Bio-One, Kremsmünster, Austria) at 37 °C in Sorensen Phosphate Buffer (57 mM Na2HPO4 and 10 mM KH2PO4, pH 7.5 + 0.01% Triton X-100). The velocity of the PBP3 reaction was calculated in the presence of each concentration of compound and the velocity values were used to estimate IC50 by sigmoidal nonlinear regression, using Prism v.9 software (San Diego, CA, USA) and the velocity of the reaction at each concentration.

E. coli Neumann = assay: MIC broth microdilution, E. coli; type: cell-based; details: Escherichia coli; Table S3; read-out: MIC (µM) E. coli Neumann
Experimental: as §1

[5] = tested on: NRK-52E, epithelial kidney cell line; assay: Cytotoxicity assay (PrestoBlue), NRK52E; details: CC50, 72 h
Experimental: as §2, §3

[6] = tested on: H9, cutaneous T lymphocyte cell line; assay: Cytotoxicity assay (PrestoBlue), H9; details: CC50, 72 h
Experimental: as §2, §3

| Structure (SMILES) | MIC (S. pneumoniae; Table S3) [µM] | Cytotoxicity CCRF-CEM [1] [µM] | Cytotoxicity effect (µM) Epithelial liver HepG2 [2] [µM] | MIC (B. subtilis 168) [µM] | MIC [3] [µM] | MIC (S. aureus 133) [µM] | MIC (µM) A. baumanii ATCC15308 (A. baumannii ATCC15308) [µM] | IC50 [4] [µM] | MIC (E. coli Neumann) [µM] | Cytotoxicity effect (µM) Epithelial kidney NRK52E [5] [µM] | Cytotoxicity effect (µM) T-lymphocyte H9 [6] [µM] | IC50 Determination with PaPBP3, S2dfluo Assay [4] | MIC (S. pneumoniae) [µM] | cytotoxic potential at the tested cell lines ([1]; four cell lines: NRK-52E, Hep G2, CCRF-CEM, H9) |
| --- | --- | --- | --- | --- | --- | --- | --- | --- | --- | --- | --- | --- | --- | --- |
| O=C(C1=C(O)C(=O)N(Cc2cccc(F)c2)C1c1ccc(Cl)cc1)c1ccc(Br)cc1 (stereo not drawn) [Compound 1] | 25 (≈ 12.5 µg/mL) | >100 | > 100 | > 100 | > 100 | > 100 | > 100 | 28 ± 9 | > 100 | > 100 | > 100 | – | – | – |
| O=C1NC(c2ccc(Cl)cc2)C(C(=O)c2ccc(Br)cc2)=C1O (stereo not drawn) [Compound 32, 4-(4-bromobenzoyl)-5-(4-chlorophenyl)-3-hydroxy-1,5-dihydropyrrol-2-one] | > 100 | 94 ± 6 | > 100 | 100 (≈ 39.3 µg/mL) | > 100 | > 100 | > 100 | > 100 | > 100 | 98 ± 5 | > 100 | loss of the inhibitory effect | – | – |
| CCN1C(=O)C(O)=C(C(=O)c2ccc(Br)cc2)C1c1ccc(Cl)cc1 (stereo not drawn) [Compound 33] | 50 (≈ 21 µg/mL) | 58 ± 6 | > 100 | > 100 | > 100 | > 100 | > 100 | > 100 | > 100 | 84 ± 5 | > 100 | loss of the inhibitory effect | – | – |
| O=C(C1=C(O)C(=O)N(Cc2cc3ccccc3[nH]2)C1c1ccc(Cl)cc1)c1ccc(Br)cc1 (stereo not drawn) [Compound 34, 4-(4-bromobenzoyl)-5-(4-chlorophenyl)-3-hydroxy-1-(1H-indol-2-ylmethyl)-5H-pyrrol-2-one] | – | >100 | > 100 | 25 (≈ 13 µg/mL) | > 100 | 6.25 (≈ 3.26 µg/mL) | > 100 | 14 ± 9 | > 100 | > 100 | > 100 | – | 12.5 (≈ 6.52 µg/mL) | – |
| O=C(C1=C(O)C(=O)N(Cc2cc3cc(Cl)ccc3[nH]2)C1c1ccc(Cl)cc1)c1ccc(Br)cc1 (stereo not drawn) [Compound 35] | 6.25 (≈ 3.48 µg/mL) | > 100 | > 100 | 6.25 (≈ 3.48 µg/mL) | > 100 | 3.13 (≈ 1.74 µg/mL) | > 100 | 3 ± 1 | > 100 | 53 ± 5 | 96 ± 7 | – | – | – |
| O=C(C1=C(O)C(=O)N(Cc2cc3cnccc3[nH]2)C1c1ccc(Cl)cc1)c1ccc(Br)cc1 (stereo not drawn) [Compound 36] | > 100 | – | 1 ± 2 | > 100 | > 100 | > 100 | > 100 | > 100 | > 100 | 58 ± 3 | 48 ± 2 | – | – | high cytotoxic potential |
| CCNC1=C(C(=O)c2ccc(Br)cc2)C(c2ccc(Cl)cc2)N(Cc2cccc(F)c2)C1=O (stereo not drawn) [Compound 43, 4-(4-bromobenzoyl)-5-(4-chlorophenyl)-3-(ethylamino)-1-[(3-fluorophenyl)methyl]-5H-pyrrol-2-one] | > 100 | > 100 | > 100 | > 100 | – | > 100 | > 100 | > 100 | > 100 | 73 ± 9.2 | > 100 | – | – | – |
